Assay results as given in PubChem BioAssay (NCI).
Several values for one entry are separate records, joined by “and”; a condition that tells them apart may be missing. Identical values can stand only once.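 Test compounds were applied to cells in 96-well plates for 48 hours at 5 doses. Abbreviation: GI50, concentration required for 50% inhibition of growth. At the TGI there is no net growth.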

Columns and labels:
Test in all cases: NCI anticancer screen, dose series, 48 h
[1] = system: A549 NSCLC
[2] = system: HCT-116 colon
[3] = system: HOP-62 NSCLC
[4] = system: HOP-92 NSCLC
[5] = system: HS 578T breast
[6] = system: K-562 leukemia
[7] = system: M14 melanoma
[8] = system: OVCAR-8 ovarian
[9] = system: SF-268 CNS
[10] = system: SN12C renal

| SMILES | GI50 [1] | TGI [1] | GI50 [2] | TGI [2] | GI50 [3] | TGI [3] | GI50 [4] | TGI [4] | GI50 [5] | TGI [5] | GI50 [6] | TGI [6] | GI50 [7] | TGI [7] | GI50 [8] | TGI [8] | GI50 [9] | TGI [9] | GI50 [10] | TGI [10] |
| --- | --- | --- | --- | --- | --- | --- | --- | --- | --- | --- | --- | --- | --- | --- | --- | --- | --- | --- | --- | --- |
| O=C(Cc1ccc(F)c(F)c1)Nc1cc(C2(C(F)(F)F)CC2)nn1Cc1ccccc1 | 4.6 µM | > 15 µM | 4.28 µM | > 15 µM | 4.55 µM | > 15 µM | 2.32 µM | 8.75 µM | 1.53 µM | 10.1 µM | 5.01 µM | > 15 µM | 5.66 µM | > 15 µM | 5.06 µM | > 15 µM | 4.27 µM | > 15 µM | 4.64 µM | > 15 µM |
| CCN(CC)CCCNCc1cc(-c2ccccc2)nc2ccccc12 | 81.6 µM | > 100 µM | 0.352 µM | 17.9 µM | 8.27 µM | > 100 µM | 2.34 µM | 9.41 µM | 16.8 µM | > 100 µM | 5.63 µM | 22.1 µM | 4.63 µM | 14.4 µM | 3.21 µM | 10.6 µM | 4.72 µM | > 100 µM | 4.52 µM | > 100 µM |
| NCCCCCCCn1c2c(c3ccccc3c1=O)C(=O)c1ccccc1-2 | 3.27 µM | 18.3 µM | 1.42 µM | 2.81 µM | 1.36 µM | 2.73 µM | 0.808 µM | 2.44 µM | 1.8 µM | 4.31 µM | 1.31 µM | 2.62 µM | 1.68 µM | 3.06 µM | 1.69 µM | 4.82 µM | 2.1 µM | 6.34 µM | 1.94 µM | 5.84 µM |
| C#CCSc1cc(Cl)c(C)cc1S(=O)(=O)Nc1nc2ccccc2o1 | 31.8 µM | > 100 µM | 24.5 µM | 55.1 µM | 29 µM | 65.6 µM | 17.9 µM | 51.3 µM | 44.2 µM | > 100 µM | 69.8 µM | > 100 µM | 32.1 µM | 67.9 µM | 40.4 µM | > 100 µM | 59.8 µM | > 100 µM | 43.5 µM | > 100 µM |
| C/C(=N\NS(=O)(=O)c1ccc(C)cc1)P(=O)(O)O | – | > 100 µM | – | > 100 µM | – | > 100 µM | – | > 100 µM | – | > 100 µM | – | > 100 µM | – | > 100 µM | – | > 100 µM | – | > 100 µM | – | > 100 µM |
| CCC/C(=N\NC(=S)N1CC2CCC(CC2)C1)c1ccccn1 | 0.122 µM | 5.23 µM and 2.01 µM | – | 0.86 µM | 1.16 µM | 4.92 µM and 2.7 µM | 0.0362 µM | 0.879 µM and 1.34 µM | – | 4.43 µM | – | 1.23 µM | 0.0142 µM | 0.598 µM and 0.207 µM | – | 2.82 µM and 2.1 µM | 0.332 µM | 8.33 µM and 2.6 µM | 0.161 µM | 4.54 µM and 4.73 µM |
| NCCOCCOCCNc1nc(-c2ccccc2)nc(N2CCN(c3ccccn3)CC2)n1 | 14.4 µM | 30.1 µM | 10 µM | 22.6 µM | 16.7 µM | 31 µM | 1.84 µM | 11.1 µM | 15.4 µM | 41 µM | 7.87 µM | 22.9 µM | 2.16 µM | 5.31 µM | 15.8 µM | 34.5 µM | 15.9 µM | 30.8 µM | 17.1 µM | 32.8 µM |
| NCC1OC(n2cnc3c(N)ncnc32)CC1O (stereo unspecified) | – | > 100 µM | – | > 100 µM | – | > 100 µM | – | > 100 µM | – | > 100 µM | – | > 100 µM | – | > 100 µM | – | > 100 µM | – | > 100 µM | – | > 100 µM |
| Nc1nc2c(ncn2C2C=CC(CO)C2)c(=O)[nH]1 (stereo unspecified) | – | > 100 µM | – | > 100 µM | – | > 100 µM | – | > 100 µM | – | > 100 µM | – | > 100 µM | – | > 100 µM | – | > 100 µM | – | > 100 µM | – | > 100 µM |
| COc1cc(N(C)C)c(OC)cc1/C=C\c1ccnc2ccccc12 | – | > 10 µM | – | > 10 µM | – | > 10 µM | – | 9.42 µM | – | > 10 µM | – | > 10 µM | – | > 10 µM | – | > 10 µM | – | > 10 µM | – | > 10 µM |
| Cc1nc2ccccc2c(/C=C/c2ccc(Cl)cc2)c1C(=O)/C=C/c1ccc(C(F)(F)F)cc1 | 1.41 µM | 3.48 µM | 0.192 µM | 0.652 µM | 0.877 µM | 2.31 µM | 1.07 µM | 2.47 µM | 0.659 µM | 3.57 µM | 0.31 µM | > 100 µM | 0.41 µM | 1.88 µM | 0.433 µM | 2.2 µM | 0.872 µM | 2.78 µM | 1.15 µM | 2.62 µM |
| O=C(O)C1(C(=O)O)CCC1.[NH2-].[NH2-].[Pt+2] | 107 µM and 185 µM | 226 µM and > 250 µM | 176 µM and 196 µM | 232 µM and > 250 µM | 139 µM and > 250 µM | 240 µM and > 250 µM | 125 µM and 106 µM | 222 µM and 246 µM | 73.6 µM and 121 µM | > 250 µM | 142 µM and > 166 µM | > 250 µM | 109 µM and 184 µM | 248 µM and > 250 µM | 181 µM and > 193 µM | 232 µM and > 250 µM | 49.2 µM and 21.5 µM | 209 µM and 161 µM | 154 µM and > 177 µM | 237 µM and > 250 µM |
| C[n+]1c2cc(N)ccc2cc2ccc(N)cc21 | 256 nM [middle of 4 runs] | – | 622 nM [middle of 4 runs] | 5.55 µM and 11.1 µM and 5.51 µM | – | 2.45 µM and 10.7 µM and 3.7 µM | – | 5.78 µM [middle of 4 runs] | 1.54 µM [middle of 4 runs] | 6.31 µM [middle of 4 runs] | 1.18 µM [middle of 4 runs] | – | 1.68 µM [middle of 4 runs] | 3.75 µM [middle of 4 runs] | 565 nM [middle of 4 runs] | – | 572 nM [middle of 4 runs] | 3.47 µM [middle of 4 runs] | 701 nM [middle of 4 runs] | 4.03 µM [middle of 4 runs] |
| C/C1=C/C(=O)O[C@@H]2C[C@@H](CC[C@H](C)/C=C\C=C\CC1)O[C@@](O)([C@@H]1CSC(=O)N1)C2 | – | > 10 µM | – | > 10 µM | – | 0.724 µM | – | 0.356 µM | – | 0.512 µM | – | > 10 µM | – | 3.75 µM | – | > 10 µM | – | 1.38 µM | – | > 10 µM |
| COc1cc(NCCCN=C(N)NC(N)=NC(C)C)c2ncccc2c1 | 56.7 µM | > 100 µM | 3.31 µM | 30.3 µM | 35.2 µM | > 84.8 µM | 2.54 µM | 26.5 µM | 14 µM | 46.1 µM | 7.56 µM | > 95.1 µM | 27.4 µM | > 83.1 µM | 23.5 µM | > 87.1 µM | 4.98 µM | > 57.5 µM | 3.51 µM | 27.2 µM |
| O=C(COc1cc(O)c2c(=O)cc(-c3ccccc3)oc2c1)Nc1ccccc1C(F)(F)F | 1.71 µM | 3.75 µM | 1.83 µM | 4.06 µM | 2.62 µM | 8.19 µM | 2.13 µM | 6.71 µM | 2.6 µM | 7.79 µM | 5.03 µM | > 100 µM | 27.6 µM | > 100 µM | 3.67 µM | 32.1 µM | 4.94 µM | 26.1 µM | 4.02 µM | > 100 µM |
| COCc1cc(C(=O)Nc2cc([C@H]3CC[C@@H](OC(=O)NC(C)C)C3)[nH]n2)n(C)n1 | 13 µM | > 100 µM | 2.61 µM | 43 µM | 8.6 µM | 88.4 µM | 8.03 µM | 36.6 µM | 11.7 µM | 85.3 µM | 12.1 µM | > 100 µM | 12.2 µM | 40.5 µM | 10.9 µM | > 100 µM | 12.1 µM | 50.5 µM | 9.58 µM | > 100 µM |
